Values joined by “and” are separate entries in the source; they are usually repeats but may differ in a detail not shown here. Equal entries are not always repeated.
Columns and labels:
[1] = Pharmacokinetics of orally administered squalamine (ENT-01) in Stage 1; assay type: in vivo, human; details: based on PK of intravenously administered squalamine in prior clinical studies
Procedure: PK data were collected on the 10 patients enrolled in Stage 1 and 10 patients enrolled in Stage 2 to determine the extent of systemic absorption. In Stage 1, PK data were obtained at each visit, pre-medication, at 1, 2, 4, 8 and 24 hours (Table 10). In Stage 2, PK was measured on days 1 and 6 of the randomization period pre-medication, at 1, 2, 4 and 8 hours (Table 11).
The mean Cmax, Tmax and T1/2 and AUC of the squalamine ion following squalamine (ENT-01) oral dosing for Stage 1 patients. The PK analyses are only approximate, as the lower limit of the validated concentration range was 10 ng/ml; most of the measured concentrations fell below that value. The mean Cmax, Tmax and T1/2 and AUC of the squalamine ion following squalamine (ENT-01) oral dosing for Stage 2 patients. The PK analyses are only approximate, as the lower limit of the validated concentration range was 0.5 ng/ml.

[2] = tested on: PD patients with constipation; experiment: CNS symptoms in Stage 2 (UPDRS, MMSE, PDHQ, BDI-II, sleep diary); assay type: in vivo, human; details: for hallucinations and delusions improved or disappeared during treatment: 6 patients with hallucinations or delusions at baseline
Source text: (5) Sleep Diary (participants completed a sleep diary on a daily basis throughout the study. The diaries included time into bed and estimated time to sleep as well as wake time and duration during the night.);
(8) Beck Depression Inventory (BDI-II);
(9) Unified Parkinson's Disease Rating Scale (UPDRS), which consists of 42 items in four subscales (Part I=Non-Motor Aspects of Experiences of Daily Living (nM-EDL) (1.1 cognitive impairment, 1.2 hallucinations and psychosis, 1.3 depressed mood, Part II=Motor Aspects of Experiences of Daily Living (M-EDL), Part III=Motor Examination, and Part IV=Motor Complications;
(10) Mini Mental State Examination (MMSE);
(12) The University of Miami Parkinson's Disease Hallucinations Questionnaire (UM-PDHQ);
Exploratory end-points, in addition to constipation, included for example, (i) depression assessed using the Beck Depression Inventory (BDI-II) (Steer et al. 2000) and Unified Parkinson's Disease Rating Scale (UPDRS); (ii) cognition assessed using the Mini Mental State Examination (MMSE) (Palsteia et al. 2018), Unified Parkinson's Disease Rating Scale (UPDRS), and Trail Making Test (TMT); (iii) sleep and REM-behavior disorder (RBD) using a daily sleep diary, I-Button Temperature Assessment, a REM sleep behavior disorder (RBD) questionnaire (RBDQ) (Stiasny-Kolster et al. 2007), and the UPDRS; (iv) hallucinations assessed using the PD hallucinations questionnaire (PDHQ) (Papapetropoulos et al. 2008), the UPDRS, and direct questioning; (v) fatigue using the Parkinson's Disease Fatigue Scale (PFS-16) and the UPDRS; (vi) motor functions using the UPDRS; and (vii) non-motor functions using the UPDRS.
Assessments were made at baseline and at the end of the fixed dose and washout periods. Circadian system status was evaluated by continuously monitoring wrist skin temperature (Thermochron iButton DS1921H; Maxim, Dallas) following published procedures (Sarabia et al. 2008).
An exploratory analysis was done with respect to the sleep data, the body temperature data, mood, fatigue, hallucinations, cognition and other motor and non-motor symptoms of PD. Continuous measurements within a subject were compared with a paired t-test and continuous measurements between subject groups were compared with a two-group t-test. Categorical data were compared with a chi-squared test or a Fisher's exact test if the expected cell counts are too small for a chi-squared test.

For CC(C)[C@@H](CC[C@@H](C)[C@H]1CC[C@H]2[C@@H]3[C@H](O)C[C@H]4C[C@@H](NCCCNCCCCN)CC[C@]4(C)[C@H]3CC[C@]12C)OS(=O)(=O)O (single isomer, unassigned) [squalamine (ENT-01), squalamine], the “oral bio-availability (estimated)” value [1] was “less than 0.3%”, the “oral bio-availability (estimated)” value ([1]; listed as aminosterol) was < 0.3% and the “hallucinations and delusions improved or disappeared during treatment” value [2] was 5 of 6 and five. The “hallucinations and delusions improved or disappeared during treatment” value ([2]; listed as aminosterol) was “five and 5 of 6”, the “improvement of arm or leg thrashing frequency” value ([2]; baseline 2.2 episodes/week to 0 at maximal dose) was 100% and the “total sleep time versus baseline” value ([2]; beyond 125 mg) was “consistently higher than baseline”. The “hallucinations/delusions did not return following discontinuation” value ([2]; in 1 patient) was 4 weeks, the “hallucinations/delusions did not return following discontinuation” value ([2]; in another patient) was 2 weeks and the “time free of hallucinations following cessation of dosing” value ([2]; one patient) was 1 month.

From US20200038415A1, “AMINOSTEROL COMPOSITIONS AND METHODS OF USING THE SAME FOR TREATING ERECTILE DYSFUNCTION” (Enterin, Inc., priority 2018, published 2020)
